The target in this experiment is T1, P. falciparum heat shock protein 90 (PfHsp90) (Plasmodium falciparum, UniProt Q8IC05).
T1 construct: gene PF3D7_0708400
The experiment is described as follows: bis-ANS fluorescence competitive binding assay with purified recombinant GHKL domain.

T1 sequence (Q8IC05 1-211 limits assumed): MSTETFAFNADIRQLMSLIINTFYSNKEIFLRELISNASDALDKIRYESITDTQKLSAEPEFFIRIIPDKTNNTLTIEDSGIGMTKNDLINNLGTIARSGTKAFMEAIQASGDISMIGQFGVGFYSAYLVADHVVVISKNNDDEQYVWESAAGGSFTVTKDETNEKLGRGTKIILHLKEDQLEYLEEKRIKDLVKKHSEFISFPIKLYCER

In the case of `CC1NCCc2c1[nH]c1ccc(Cl)cc21` (centres unmarked) [17A], the IC50 (usually the midpoint of a concentration-inhibition curve) was found to be 12.2 ± 2.3 µM.

Regarding `CC1NCCc2c1[nH]c1ccc(Br)cc21` (centres unmarked) [21A], the IC50 stood at 23.1 ± 8.8 µM.

The values are drawn from PMC5131496, “In vitro and in vivo anti-malarial activity of novel harmine-analog heat shock protein 90 inhibitors: a possible partner for artemisinin” (Malaria Journal, 2016).
